The nature of the data set: method code SF, from Rulke, H.; Friedel, A.; Martin, E.; Kottke, K.; Grafe, I.; Kuhmstedt, H. (1991). Investigations on the acidity ond partition properties of 1-phenyl-5-mercaptotetrazoles. Pharmazie, 46(6)456-457.
Take `S=c1[nH]nnn1-c1ccc(Cl)cc1`: the lipophilicity (logP) (in general, a log measure of how a compound divides between an organic and an aqueous phase) amounted to 2.09.

Take `S=c1[nH]nnn1-c1ccc(Cl)cc1Cl`: the log partition coefficient (logP) came out at 2.89.

For `S=c1[nH]nnn1-c1ccc(Cl)c(Cl)c1`, the logP is 2.68.

Turning to `S=c1[nH]nnn1-c1cccc(Cl)c1`, the logP is 2.34.

`S=c1[nH]nnn1-c1ccc2ccccc2c1` showed a logP of 2.63.

Take `S=c1[nH]nnn1-c1cccc(Br)c1`: the logP is 2.39.

The molecule `S=c1[nH]nnn1-c1ccccc1I` came in with a log partition coefficient (logP) of 3.14.

On to `Cc1cccc(-n2nn[nH]c2=S)c1`, for which the logP was determined as 2.29.

As to `S=c1[nH]nnn1-c1ccc(Br)cc1`, the logP was 2.54.

`S=c1[nH]nnn1-c1cccc(Cl)c1Cl` came in with a logP of 2.41.

`O=[N+]([O-])c1ccc(-n2nn[nH]c2=S)cc1` registered a logP of 1.99.

For the origin of these results see the SangsterLogP compilation.
